Test results reported in ChEMBL document CHEMBL4811278, “Discovery of novel modulators for the PPARα (peroxisome proliferator activated receptor α): Potential therapies for nonalcoholic fatty liver disease” (Bioorg Med Chem, 2021).
Calls of active or inactive are those of the source. The calls are words filed in the database; no cut-off is given here.

What was measured:
[1] = Toxicity in high fat diet-induced nonalcoholic steatohepatitis C57BL/6J mouse model assessed as increase in plasma glucose level at 3 mg/kg, po administered once daily for 7 days and measured after 4 days; type: organism-based; conditions: in vivo, 96 h, time 4 day
[2] = tested on: Mus musculus; assay: Hypolipidemic activity in high fat diet-induced nonalcoholic steatohepatitis C57BL/6J mouse model assessed as reduction in hepatocellular vacuolation at 3 mg/kg, po administered once daily for 1 week by Oil Red O staining based assay; type: functional, organism-based; conditions: time 1.0 weeks
[3] = tested on: Mus musculus; assay: Hypolipidemic activity in high fat diet-induced nonalcoholic steatohepatitis C57BL/6J mouse model assessed as reduction in plasma triglyceride level at 3 mg/kg, po administered once daily via gavage for 7 days; type: functional; conditions: 168 h, time 7 day
[4] = target: T1, Peroxisome proliferator-activated receptor delta (Homo sapiens, UniProt Q03181); assay: Agonist activity at Gal4-fused human PPARdelta expressed in monkey CV1 cells assessed as receptor transactivation incubated for 45 hrs by luciferase reporter gene assay; type: cell-based, CV-1
T1 sequence (Q03181 whole entry): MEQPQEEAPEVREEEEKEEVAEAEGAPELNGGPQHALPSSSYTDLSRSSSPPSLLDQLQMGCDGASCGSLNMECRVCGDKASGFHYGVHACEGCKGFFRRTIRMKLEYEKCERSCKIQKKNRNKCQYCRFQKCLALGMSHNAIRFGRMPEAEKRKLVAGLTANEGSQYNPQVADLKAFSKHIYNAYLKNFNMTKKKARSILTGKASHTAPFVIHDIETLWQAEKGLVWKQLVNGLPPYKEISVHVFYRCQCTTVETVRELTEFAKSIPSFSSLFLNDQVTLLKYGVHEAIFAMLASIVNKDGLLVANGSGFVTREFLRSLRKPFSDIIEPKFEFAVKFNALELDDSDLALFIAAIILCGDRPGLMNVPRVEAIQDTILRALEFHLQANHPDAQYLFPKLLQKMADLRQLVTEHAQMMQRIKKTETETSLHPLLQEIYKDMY

[5] = target: T2, Peroxisome proliferator-activated receptor alpha (Mus musculus) (UniProt P23204); assay: In vivo agonist activity at PPARalpha in high fat diet-induced nonalcoholic steatohepatitis C57BL/6J mouse model assessed as increase in Cyp4a3 mRNA expression in liver administered at 3 mg/kg, po and measured after 24 hrs by quantitative real time PCR analysis; type: functional, organism-based
T2 sequence (whole entry): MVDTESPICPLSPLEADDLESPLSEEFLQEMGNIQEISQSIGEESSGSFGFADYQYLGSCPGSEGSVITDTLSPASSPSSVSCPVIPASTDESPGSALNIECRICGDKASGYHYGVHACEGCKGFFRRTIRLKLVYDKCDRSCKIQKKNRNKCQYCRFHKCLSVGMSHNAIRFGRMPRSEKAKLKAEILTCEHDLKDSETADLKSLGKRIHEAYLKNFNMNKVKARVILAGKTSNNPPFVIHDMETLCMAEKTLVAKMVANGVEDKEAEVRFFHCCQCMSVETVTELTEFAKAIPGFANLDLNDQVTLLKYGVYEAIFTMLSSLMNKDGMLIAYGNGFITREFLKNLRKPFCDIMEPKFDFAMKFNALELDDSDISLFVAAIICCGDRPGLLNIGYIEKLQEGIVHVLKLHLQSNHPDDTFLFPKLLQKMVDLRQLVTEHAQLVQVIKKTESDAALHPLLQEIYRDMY

[6] = Toxicity in C57BL/6J mouse assessed as reduction in body weight measured after 72 hrs; conditions: in vivo
[7] = tested on: Mus musculus; assay: Hypolipidemic activity in wild type high fat diet-induced nonalcoholic steatohepatitis C57BL/6J mouse model assessed as reduction in plasma triglyceride levels at 3 mg/kg, po measured after 72 hrs; type: functional, organism-based
[8] = tested on: Mus musculus; assay: Hypolipidemic activity in high fat diet-induced nonalcoholic steatohepatitis C57BL/6J mouse model assessed as reduction in fat droplets in liver at 3 mg/kg, po administered once daily for 1 week by Oil Red O staining based assay; type: functional, organism-based; conditions: time 1.0 weeks
[9] = target: T3, Peroxisome proliferator-activated receptor gamma (Homo sapiens, UniProt P37231); assay: Agonist activity at Gal4-fused human PPARgamma expressed in monkey CV1 cells assessed as receptor transactivation incubated for 45 hrs by luciferase reporter gene assay; type: cell-based, CV-1
T3 sequence (P37231 whole entry): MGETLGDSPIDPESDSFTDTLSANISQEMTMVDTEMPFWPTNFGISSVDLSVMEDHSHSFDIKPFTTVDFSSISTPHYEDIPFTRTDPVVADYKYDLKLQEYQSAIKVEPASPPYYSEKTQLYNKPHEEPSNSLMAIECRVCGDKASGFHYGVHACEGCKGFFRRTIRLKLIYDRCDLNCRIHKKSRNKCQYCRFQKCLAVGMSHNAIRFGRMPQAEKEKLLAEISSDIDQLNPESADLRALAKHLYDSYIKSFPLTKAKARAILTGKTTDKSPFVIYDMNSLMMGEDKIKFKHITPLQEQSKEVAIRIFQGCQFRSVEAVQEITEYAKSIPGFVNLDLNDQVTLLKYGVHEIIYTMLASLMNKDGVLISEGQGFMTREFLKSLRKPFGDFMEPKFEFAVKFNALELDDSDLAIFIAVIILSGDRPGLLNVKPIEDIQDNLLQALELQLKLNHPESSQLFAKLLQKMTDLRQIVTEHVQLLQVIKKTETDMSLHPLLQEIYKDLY

[10] = target: T2, Peroxisome proliferator-activated receptor alpha (Mus musculus); assay: In vivo agonist activity at PPARalpha in high fat diet-induced nonalcoholic steatohepatitis C57BL/6J mouse model assessed as increase in ACOX1 mRNA expression in liver administered at 3 mg/kg, po and measured after 24 hrs by quantitative real time PCR analysis; type: functional, organism-based
[11] = target: T2, Peroxisome proliferator-activated receptor alpha (Mus musculus); assay: In vivo agonist activity at PPARalpha in high fat diet-induced nonalcoholic steatohepatitis C57BL/6J mouse model assessed as increase in Cyp4a3 mRNA expression in liver administered at 3 mg/kg, po administered once daily for 7 days by quantitative real time PCR analysis; type: functional, organism-based; conditions: time 7.0 day
[12] = target: T2, Peroxisome proliferator-activated receptor alpha (Mus musculus); assay: In vivo agonist activity at PPARalpha in high fat diet-induced nonalcoholic steatohepatitis C57BL/6J mouse model assessed as increase in LPL mRNA expression in liver administered at 3 mg/kg, po and measured after 24 hrs by quantitative real time PCR analysis; type: functional, organism-based
[13] = tested on: Mus musculus; assay: Hypolipidemic activity in high fat diet-induced nonalcoholic steatohepatitis C57BL/6J mouse model assessed as reduction in plasma free fatty acid level at 3 mg/kg, po administered once daily via gavage for 7 days; type: functional; conditions: 168 h, time 7 day
[14] = Toxicity in C57BL/6J mouse assessed as reduction in body weight measured after 24 hrs; conditions: in vivo
[15] = target: T2, Peroxisome proliferator-activated receptor alpha (Mus musculus); assay: In vivo agonist activity at PPARalpha in high fat diet-induced nonalcoholic steatohepatitis C57BL/6J mouse model assessed as trans-repression of ApoC3 mRNA expression in liver administered at 3 mg/kg, po and measured after 24 hrs by quantitative real time PCR analysis; type: functional, organism-based
[16] = target: T2, Peroxisome proliferator-activated receptor alpha (Mus musculus); assay: In vivo agonist activity at PPARalpha in high fat diet-induced nonalcoholic steatohepatitis C57BL/6J mouse model assessed as transrepression of ApoC3 mRNA expression in liver administered at 3 mg/kg, po administered once daily for 7 days by quantitative real time PCR analysis; type: functional, organism-based; conditions: time 7.0 day
[17] = target: T2, Peroxisome proliferator-activated receptor alpha (Mus musculus); assay: In vivo agonist activity at PPARalpha in high fat diet-induced nonalcoholic steatohepatitis C57BL/6J mouse model assessed as increase in mACADM gene expression in liver at 3 mg/kg, po administered once daily for 7 days by quantitative real time PCR analysis; type: functional, organism-based; conditions: time 7.0 day

EC50 [4]: > 10 µM
Activity [5]: Active
EC50 [9]: > 10 µM
Activity [10]: Active
Activity [11]: Active
Activity [12]: Active
Activity [15]: Active
Activity [16]: Active
Activity [17]: Active
SMILES: COc1ccc(Cn2c(CCCc3ccc(OC(C)(C)C(=O)O)cc3)nn(Cc3ccc(C)cc3)c2=O)cc1
Activity [1]: Non-Toxic
Activity [2]: Active
inhibition in vivo at 3 mg/kg [3]: ≥ 50%
Activity [6]: Non-Toxic
Activity [7]: Active
Activity [8]: Active
inhibition in vivo at 3 mg/kg [13]: ≥ 60%
Activity [14]: Non-Toxic
